{"source": "patent US8460932B2", "about": "“Method of treating a disorder by suicide gene therapy” (priority 1999, dated 2013)", "system": "brains of rodents", "test": "Expression, distribution and longevity of transgene in brain after intrastriatal vector injection (immunohistochemistry)", "type": "in vivo, Lewis rat", "conditions": "GCV 25 mg/kg i.p. twice daily for 7 days vs saline after RAd 128; 1 month to 1 year", "protocol": "UK. […] Antibodies were diluted in 1% NHS in TBS.\nGroups of animals were then perfused 1 month, 3 months, 5 months, or 12 months later. Animals were perfusion-fixed and brains were cut in serial sections.\nTo assess the effects of HSV-1 TK on the expression another transgene, lacZ, a combination of either RAd TK+RAd HPRT or RAd 35+RAd HPRT or RAd 35+RAd TK was injected into the mid striatum of 9 rats (3 rats per group). The total vector dose was 8×10^7 iu (i.e. 4×10^7 iu per vector).", "data": [{"molecule": "Nc1nc(O)c2ncn(COC(CO)CO)c2n1", "note": "[GCV, ganciclovir]", "values": [{"measurement": "Effect on the maintenance of HSV1-TK immunoreactivity in the rodent brain", "result": "no effect"}]}]}
